The test system of data set [1] is E. coli W3110. Description: H-89 derivatives rescreen, 50 µM. In kind it is cell-based. Conditions: Escherichia coli, H-89 derivative rescreen, highest 50 µM. As to the method: From glycerol stocks, E. coli W3110 was cultured on blood agar plates (PB5039A, Thermo Scientific) by overnight (18 ± 2 h) aerobic incubation at 37 °C. A single colony was transferred to tryptic soy broth (TSB, 02-200-500, Scharlab). The cultures were grown to exponential phase (OD600 of 0.5) at 37 °C. The bacterial suspensions were diluted 200-fold in cation-adjusted Mueller–Hinton broth (CAMHB) and 99 µl was added to a library of test compounds (1 µl 10 mM DMSO stock, per well in technical duplicates) in polypropylene 96-well microtitre plates to reach a volume of 100 µl and a final concentration of 100 µM for each test compound and a maximum of 1% DMSO. […] Screening hits were selected from the wells where no visible bacterial growth was observed, as compared with the inoculum controls containing 1% DMSO. The follow-up screen of H-89 derivatives was performed under similar conditions with a final concentration of 50 µM.

Data set [2] deals with K. pneumoniae ATCC 29665. The data set can be described thus: MIC by broth microdilution. In kind it is cell-based, Klebsiella pneumoniae. Conditions: Klebsiella pneumoniae, ATCC29665, broth microdilution; read-out: MIC K. pneumoniae ATCC 29665. In short, it runs like this:
(§1)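 Exponential-phase cultures (OD600 0.5, 37 °C aerobic), diluted 100-fold in CAMHB, were added to twofold compound dilution series. Keio strains grown with 50 µg ml^−1 kanamycin. Plates incubated overnight at 37 °C, shaking at 600 r.p.m.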
Background: Dilution methods test growth across graded concentrations, often in twofold steps.

The subject of data set [3] is E. coli W3110. Description: MIC by broth microdilution. The data set is classed as cell-based, Escherichia coli. Conditions: Escherichia coli, W3110, WT, broth microdilution; read-out: MIC E. coli W3110. The essentials:
as §1

Data set [4] has as its system HEK293T. Description: Cytotoxicity assay (MTT). Conditions: for MTT data (raw readout): HEK293T. The data set is classed as cell-based, human. In short, it runs like this:
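HEK293T cells, maintained at 37 °C and 7% CO2 in Dulbecco’s modified Eagle medium with GlutaMax, antibiotics and serum, were plated in clear 96-well plates in 100 µl medium containing 1% fetal bovine serum and left 24 h to attach. After 24 h compound exposure, MTT (0.40 mg ml^−1) was added for 2 h. Formazan was dissolved in 100 µl DMSO and absorbance measured at 570 nm. Background-corrected IC50 values came from variable-slope non-linear fits.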

In data set [5] the test system is HepG2. The data set can be described thus: Cytotoxicity assay (MTT). The data set is classed as cell-based, human.

In general, MIC refers to the lowest concentration that inhibits growth of the organism. Broadly, the IC50 is the point on the concentration scale where inhibition reaches its midpoint. High values mean a need for much substance, low ones inhibition by little substance.

In brackets after ≈: the same amount, converted by molar mass. Several values for one entry are separate records, joined by “and”; a condition that tells them apart may be missing. Identical values can stand only once. Some results are limits rather than exact numbers.

Molecule `O=S(=O)(NCCNC/C=C/c1ccc(-c2ccccc2)cc1)c1cccc2cnccc12` [Compound 2] had an MIC in data set [1] greater than 50 µM.

For the molecule `O=S(=O)(NCCNC/C=C/c1ccc(-c2ccc3ccccc3c2)cc1)c1cccc2cnccc12` [Compound 3], in data set [1], the MIC is greater than 50 µM.

In data set [1], `O=S(=O)(NCCNC/C=C/c1ccc(-c2ccccc2)cc1)c1cccc2ccccc12` [Compound 4] yielded an MIC greater than 50 µM.

With `O=S(=O)(NCCNCc1ccc2cc(-c3cccnc3)ccc2c1)c1cccc2cnccc12` [Compound 5], in data set [1], the minimal inhibitory concentration (MIC) was greater than 50 µM.

In data set [1], `O=S(=O)(NCCNC/C=C/c1ccc(-c2cccnc2)cc1)c1cccc2ccccc12` [Compound 6] displayed an MIC greater than 50 µM.

With `O=[N+]([O-])c1ccccc1S(=O)(=O)NCCNC/C=C/c1ccc(-c2cccnc2)cc1` [Compound 7], the MIC in data set [1] was greater than 50 µM.

Turning to `CN(CCNC/C=C/c1ccc(-c2cccnc2)cc1)S(=O)(=O)c1cccc2cnccc12` [Compound 8], in data set [1], the minimal inhibitory concentration (MIC) is greater than 50 µM.

`CN(C/C=C/c1ccc(-c2cccnc2)cc1)CCNS(=O)(=O)c1cccc2cnccc12` [Compound 9] had an MIC in data set [1] greater than 50 µM.

In turn, `CN(CCNCCCc1ccc(-c2cccnc2)cc1)S(=O)(=O)c1cccc2cnccc12` [Compound 10] registered a minimum inhibitory concentration (MIC) in data set [1] greater than 50 µM.

Take `O=S(=O)(NCCCCCCc1ccc(-c2cccnc2)cc1)c1cccc2cnccc12` [Compound 11]: the MIC in data set [1] is greater than 50 µM.

For the molecule `O=C(CCc1ccc(-c2cnc3[nH]ccc3c2)cc1)NCCNS(=O)(=O)c1ccccc1` [Compound 12], the MIC in data set [1] is greater than 50 µM.

On to `O=C(CCc1ccc(-c2cnc3[nH]ccc3c2)cc1)NCCNS(=O)(=O)c1ccc(Cl)cc1` [Compound 13], for which, in data set [1], the MIC was greater than 50 µM.

`O=C(CCc1ccc(-c2cnc3[nH]ccc3c2)cc1)NCCNS(=O)(=O)c1ccc(Cl)c(Cl)c1` [Compound 14] returned an MIC in data set [1] greater than 50 µM.

Regarding `Cc1ccc(S(=O)(=O)NCCNC(=O)CCc2ccc(-c3cnc4[nH]ccc4c3)cc2)cc1` [Compound 15], the MIC in data set [1] is greater than 50 µM.

Molecule `COc1ccc(S(=O)(=O)NCCNC(=O)CCc2ccc(-c3cnc4[nH]ccc4c3)cc2)cc1` [Compound 16] registered an MIC in data set [1] greater than 50 µM.

`O=S(=O)(NCCNCCCc1ccc(-c2cnc3[nH]ccc3c2)cc1)c1ccc(Cl)cc1` [Compound 17] gave an MIC in data set [1] greater than 50 µM.

In the case of `Cc1ccc(S(=O)(=O)NCCNCCCc2ccc(-c3cnc4[nH]ccc4c3)cc2)cc1` [Compound 18], the MIC in data set [1] was greater than 50 µM.

The molecule `O=S(=O)(NCCNCCCc1ccc(-c2cnc3[nH]ccc3c2)cc1)c1ccccc1` [Compound 19] gave an MIC in data set [1] greater than 50 µM.

In data set [1], `COc1ccc(S(=O)(=O)NCCNCCCc2ccc(-c3cnc4[nH]ccc4c3)cc2)cc1` [Compound 20] displayed a minimal inhibitory concentration (MIC) greater than 50 µM.

`O=C(CCC#Cc1cnc2[nH]ccc2c1)NCCNS(=O)(=O)c1cccc2cnccc12` [Compound 21] showed an MIC in data set [1] greater than 50 µM.

On to `O=S(=O)(NCCNCCCc1ccc(-c2cnc3[nH]ccc3c2)cc1)c1ccc(Cl)c(Cl)c1` [Compound 22], for which, in data set [1], the MIC is greater than 50 µM.

In data set [1], `O=C(CCc1ccc(-c2cnc3[nH]ccc3c2)cc1)NCCNS(=O)(=O)c1cccc([N+](=O)[O-])c1` [Compound 23] showed an MIC greater than 50 µM.

For the molecule `O=C(CCc1ccc(-c2cnc3[nH]ccc3c2)cc1)NCCNS(=O)(=O)c1cccc(Cl)c1` [Compound 24], the MIC in data set [1] is greater than 50 µM.

With `O=C(CCc1ccc(-c2cnc3[nH]ccc3c2)cc1)NCCNS(=O)(=O)c1ccc(F)cc1` [Compound 25], the MIC in data set [1] was greater than 50 µM.

The molecule `Clc1cnc(N2CCCC2)nc1Nc1n[nH]c2ccccc12` [Compound 26] gave an MIC in data set [1] greater than 50 µM.

Consider `CC(C)(C)c1cc(NC(=O)CCC#Cc2cccnc2)no1` [Compound 27], for which, in data set [1], the MIC was greater than 50 µM.

In turn, `CC(C)(C)c1cc(NC(=O)CCC#Cc2cnc3[nH]ccc3c2)no1` [Compound 28] came in with an MIC in data set [1] greater than 50 µM.

`CC(C)(C)c1cc(NC(=O)CCC#Cc2ccc(N)nc2)no1` [Compound 29] displayed an MIC in data set [1] greater than 50 µM.

In data set [1], `CC(C)(C)c1cc(C(=O)NCC#Cc2ccc(N)nc2)no1` [Compound 30] registered a minimum inhibitory concentration (MIC) greater than 50 µM.

In the case of `CC(C)(C)c1cc(C(=O)NCC#Cc2cnc3[nH]ccc3c2)no1` [Compound 31], the MIC in data set [1] is greater than 50 µM.

As for `CC(C)(C)c1cc(C(=O)NCC#Cc2cccnc2)no1` [Compound 32], in data set [1], the MIC was greater than 50 µM.

With `CC(C)(C)c1cc(NC(=O)CCC#Cc2ccncc2)no1` [Compound 33], in data set [1], the MIC is greater than 50 µM.

Take `Nc1nccc2c(S(=O)(=O)NCCNC/C=C/c3ccc(-c4cccnc4)cc3)cccc12` [Compound 34]: the minimum inhibitory concentration (MIC) in data set [1] is greater than 50 µM.

In turn, `O=S(=O)(NCCNC/C=C/c1ccc(-c2cccnc2)cc1)c1cccc2cnccc12` [Compound 35] showed an MIC in data set [1] greater than 50 µM.

With `O=S(=O)(NC[C@@H]1CC[C@H](c2ccc(-c3ccccc3)cc2)N1)c1cccc2cnccc12` [Compound 100], the MIC in data set [2] was determined as 6.25 µM (≈ 2.77 µg/mL); in data set [3], 1.6 µM (≈ 0.71 µg/mL). Besides, the “cytotoxicity” value in data set [4] (HEK293T and HepG2) is listed as “substantial cytotoxicity”. For the same molecule, the “MTT data (raw readout)” value in data set [4] (0.023 uM, experiment n = 1, technical triplicates) is 1.435 and 1.455 and 1.506; in data set [4] (0.023 uM, experiment n = 2, technical triplicates) it was 1.022 and 0.970 and 0.963; in data set [4] (0.068 uM, experiment n = 1, technical triplicates), 1.260 and 1.443 and 1.546; in data set [4] (0.068 uM, experiment n = 2, technical triplicates), 1.032 and 0.974 and 0.962; in data set [4] (0.21 uM, experiment n = 1, technical triplicates), 1.440 and 1.428 and 1.427; in data set [4] (0.21 uM, experiment n = 2, technical triplicates), 1.023 and 0.943 and 0.880. For the same molecule, the “MTT data (raw readout)” value was 1.304 and 1.414 and 1.203 in data set [4] (0.62 uM, experiment n = 1, technical triplicates); 0.795 and 0.796 and 0.802 in data set [4] (0.62 uM, experiment n = 2, technical triplicates); 0.892 and 0.934 and 1.008 in data set [4] (1.85 uM, experiment n = 1, technical triplicates); 0.653 and 0.625 and 0.564 in data set [4] (1.85 uM, experiment n = 2, technical triplicates); 0.787 and 0.844 and 0.842 in data set [4] (5.6 uM, experiment n = 1, technical triplicates); 0.528 and 0.470 and 0.496 in data set [4] (5.6 uM, experiment n = 2, technical triplicates). For the same molecule, the “MTT data (raw readout)” value in data set [4] (16.7 uM, experiment n = 1, technical triplicates) is 0.654 and 0.620 and 0.622; in data set [4] (16.7 uM, experiment n = 2, technical triplicates), 0.433 and 0.475 and 0.464; in data set [4] (50 uM, experiment n = 1, technical triplicates), 0.419 and 0.461 and 0.443; in data set [4] (50 uM, experiment n = 2, technical triplicates) it was 0.271 and 0.254 and 0.252; in data set [5] (HepG2, 0.023 uM, experiment n = 1, technical triplicates) it was 0.333 and 0.336 and 0.361; in data set [5] (HepG2, 0.023 uM, experiment n = 2, technical triplicates), 0.317 and 0.327 and 0.342. The “MTT data (raw readout)” value in data set [5] (HepG2, 0.068 uM, experiment n = 1, technical triplicates) was 0.444 and 0.395 and 0.393; in data set [5] (HepG2, 0.068 uM, experiment n = 2, technical triplicates) it was 0.444 and 0.405 and 0.418; in data set [5] (HepG2, 0.21 uM, experiment n = 1, technical triplicates), 0.321 and 0.295 and 0.307; in data set [5] (HepG2, 0.21 uM, experiment n = 2, technical triplicates) it was 0.315 and 0.286 and 0.293; in data set [5] (HepG2, 0.62 uM, experiment n = 1, technical triplicates), 0.316 and 0.335 and 0.382; in data set [5] (HepG2, 0.62 uM, experiment n = 2, technical triplicates), 0.313 and 0.317 and 0.366. Moreover, the “MTT data (raw readout)” value in data set [5] (HepG2, 1.85 uM, experiment n = 1, technical triplicates) was 0.377 and 0.346 and 0.368; in data set [5] (HepG2, 1.85 uM, experiment n = 2, technical triplicates) it was 0.307 and 0.264 and 0.317; in data set [5] (HepG2, 5.6 uM, experiment n = 1, technical triplicates), 0.341 and 0.333 and 0.345; in data set [5] (HepG2, 5.6 uM, experiment n = 2, technical triplicates), 0.271 and 0.300 and 0.310; in data set [5] (HepG2, 16.7 uM, experiment n = 1, technical triplicates), 0.345 and 0.363 and 0.356; in data set [5] (HepG2, 16.7 uM, experiment n = 2, technical triplicates), 0.277 and 0.308 and 0.357. Also, the “MTT data (raw readout)” value in data set [5] (HepG2, 50 uM, experiment n = 1, technical triplicates) was 0.236 and 0.222 and 0.339; in data set [5] (HepG2, 50 uM, experiment n = 2, technical triplicates), 0.109 and 0.122 and 0.118. Moreover, the IC50 in data set [4] (Homo sapiens, HEK-293T, 24 h, MTT) was 8.1 µM; in data set [5] (Homo sapiens, HepG2, 24 h, MTT, 24 h) it was 37 µM.

The record behind these values is PMC11374673, “Discovery of isoquinoline sulfonamides as allosteric gyrase inhibitors with activity against fluoroquinolone-resistant bacteria” (Nature Chemistry, 2024).
